Structures can show the parent of a compound that is named as a salt.
Tests used:
Solubility in water = assay type: physicochemical
[1] = tested on: rats of male sex, of the Sprague-Dawley strain; experiment: Anti-inflammatory activity in the kaolin test; assay type: in vivo; settings: rat, 10% suspension of kaolin, diameter of the articulation
Experimental: (§1) The tests used for the evaluation of the anti-inflammatory activity were respectively that of the kaolin and that of the egg white.
a) Anti-inflammatory activity in the kaolin test. For each compound 16 rats of male sex, of the Sprague-Dawley strain and of 200-250 g of body weight, were used. The rats were divided into four groups each comprising four rats. All the animals were injected with a 10% suspension of kaolin. The first group was used as the control, whereas the other three groups were administered with doses respectively of 50,75 and 100 mg/Kg. The measurements of the diameters of the articulation were effected one hour after the kaolin injection and then every 24 hours.
The inoculation of kaolin caused an increase of the tibio-tarsal articulation which has been partially limited by the treatment with the test compound.

[2] = tested on: male rats, of the Sprague-Dawley strain; experiment: Anti-inflammatory activity in the egg white test; assay type: in vivo, rat; settings: two oral doses of 100 mg/Kg with a 30 minute interval, 0,1 ml of egg white in the rear paw, measured 3 and 4 hours later
Experimental: as §1
For each compound 16 male rats, of the Sprague-Dawley strain and weighing 300 g, were used. The animals were divided- in four groups each comprising four rats. The first group served as a control, whereas the other three groups were orally administered, with a 30 minute interval, with two doses of 50,75 and 100 mg/Kg of the test compound.
The last administration was immediately followed by the inoculation of 0,1 ml of egg white in the rear paw of all the animals, including the controls. The measurements of the diameters of the articulations were effected 3 and 4 hours later.

female rats = experiment: Test for possible teratogenic action; assay type: in vivo, rat; settings: 50 mg/Kg from the beginning up to the 19-20 day of gestation
Experimental: The subject compound was also tested with respect to a possible teratogenic action, by administering to female rats a dose of 50 mg/Kg from the beginning up to the 19-20 day of gestation.

[3] = Acute toxicity by oral route in the rat; assay type: in vivo; settings: rat, in vivo, rat, evaluated ten days after administration
Experimental: (§2) Sprague-Dawley albine rats having an average weight of 120 + 5 g and of both sexes were used.
(§3) For each compound 40 rats were treated. The test compound as a suspension in 5% arabic gum was administered through a gastric probe.
(§4) The results were evaluated ten days after the administration.

[4] = tested on: Sprague-Dawley albine rats; experiment: Acute toxicity by oral route in the rat; assay type: in vivo; settings: evaluated ten days after administration
Experimental: as §2, §3, §4

[5] = TREATMENT 900 (900 mg/Kg elsewhere in the source), oral by gastric probe

SMILES: CC(C)Cc1ccc(C(C)C(=O)SC(C)C(=O)NCC(=O)O)cc1 (stereo not shown) [potassium salt]
- solubility in water (Solubility in water): highly soluble in water

SMILES: CC(C)Cc1ccc(C(C)C(=O)SC(C)C(=O)NCC(=O)O)cc1 (stereo not shown) [test compound]
- ANTI-INFLAMMATORY ACTIVITY % ([1]; 75 mg/kg): 10%
- ANTI-INFLAMMATORY ACTIVITY % ([1]; 100 mg/kg): 26%
- ANTI-INFLAMMATORY ACTIVITY % [2]: 26%
- reabsorption number and the foeti in the treated rats with respect to the controls (female rats): no significant difference
- weight of the foeti (female rats): did not revealed whatsoever anomaly
- LD50 at 240 h ([3]; po): > 900 mg/kg
- mortality at 240 h [3, 5]: 0%
- dead/living ([4]; TREATMENT 150 (dose unit not given), oral by gastric probe, suspension in 5% arabic gum): 0/8
- dead/living ([4]; TREATMENT 300, oral by gastric probe): 0/8
- dead/living ([4]; TREATMENT 450, oral by gastric probe): 0/8
- dead/living ([4]; TREATMENT 600, oral by gastric probe): 0/8
- dead/living [4, 5]: 0/8

SMILES: CC(C)Cc1ccc(C(C)C(=O)SC(C)C(=O)NCC(=O)O)cc1 (stereo not shown) [calcium salt]
- solubility in water (Solubility in water): insoluble

SMILES: CC(C)Cc1ccc(C(C)C(=O)SC(C)C(=O)NCC(=O)O)cc1 (stereo not shown) [magnesium salt]
- solubility in water (Solubility in water): insoluble

SMILES: CC(C)Cc1ccc(C(C)C(=O)SC(C)C(=O)NCC(=O)O)cc1 (stereo not shown) [sodium salt]
- solubility in water (Solubility in water): highly soluble in water

Reference: EP0052909A1, “Derivative of alfa-mercaptopropionilglicine having therapeutical activity, process for its preparation and related pharmaceutical compositions” (Real S.a.s. di Alberto Reiner & C., priority 1980, dated 1982)
